Assay results from patent EP2042188A1, “PHARMACEUTICAL COMPOSITION FOR TREATING OR PREVENTING HCV INFECTION” (priority 2006, dated 2007).
Where two headings read alike, the source gives them in different places.

Assays:
[1] = tested on: HCV genotype, 1a (HCG9); assay: HCV RNA and core protein in serum and liver of chimeric mice infected with HCV genotype 1a; assay type: in vivo; details: 2 mg/kg of myriocin every day for six days
Method: The serum RNA level in these mice reached about 1x10^8 copies/ml, 10 times higher than that of HCV 1b (HCR6) (Fig. 5A). Therefore, it was assumed that the HCV core protein in the hepatocytes could be readily detected by immunofluorescent staining. The present inventors administered 2 mg/kg of myriocin to 1a-4 chimeric mice every day for six days and then excised the livers. For comparison, livers were also excised from non-treated mice (1a-1), non-infected mice (1a-2), and PEG-IFN-treated mice (1a-3) in the same way. The livers were homogenized in RIPA, and 100 µg of the total protein was used for detection of the core protein using the Ortho HCV core protein ELISA kit (Eiken Chemical).
Next, the liver tissues of the chimeric mice were examined by immunofluorescent staining. Liver sections from the 1a-1 and 1a-4 mice were probed using a biotinylated anti-HCV core protein monoclonal antibody and anti-human hepatocyte monoclonal antibody (Dako, Glostrup, Denmark) as primary antibodies. Then, the sections were probed with streptavidin-Alexa 488 (Invitrogen) and anti-mouse IgG-Alexa-546 (Invitrogen). Furthermore, nuclei were stained with DAPI.
The effect of myriocin treatment on the expression of HCV RNA and core protein in the livers of the chimeric mice was confirmed by the method described above.

[2] = tested on: FLR3-1 cells; assay: Cell viability (Tetra Color One kit); assay type: cell-based; details: 72 hours of incubation, 0.2 to 62.5 nM
Method: Furthermore, myriocin was added to FLR3-1 cells, and after 72 hours of incubation, the cell viability was determined using Tetra Color One kit (Seikagakukogyo, Tokyo, Japan) according to the manufacturer's instructions.

[3] = tested on: de novo sphingolipid biosynthesis in FLR3-1 cells; assay: De novo sphingolipid biosynthesis monitored by [14C]-serine incorporation and TLC; assay type: cell-based; details: TLC
Method: To investigate the correlation between sphingolipid metabolites and HCV replication, the present inventors monitored the de novo sphingolipid biosynthesis in FLR3-1 cells in the presence of myriocin.
First, FLR3-1 cells were incubated with [^14C]-serine (0.5 µCi/ml) in Opti-MEM (Invitrogen) for two hours. After the cells were lysed in 0.1% SDS, total lipid was extracted using chloroform/methanol (1:2 (v/v)). The extract was spotted onto a Silica gel 60 thin layer chromatography (TLC) plate (Merck, Darmstadt, Germany), and chromatographed using methyl acetate/ 1-propanol/ chloroform/methanol/ 0.25% KCl (25:25:25:10:9 (v/v)). Radioactive spots were detected using BAS 2000 (Fujifilm, Kanagawa, Japan).

[4] = Serum human albumin level (Alb-II kit) in HCV 1b infected chimeric mice; assay type: in vivo, chimeric mice having humanized liver; details: serum of HCV 1b infected chimeric mice
Method: The present inventors monitored the human albumin (h-Alb) level at the same time. The human albumin level was determined using 2 µl of serum and the Alb-II kit (Eiken Chemical, Tokyo, Japan) according to the manufacturer's instructions.

[5] = tested on: HCV genotype 1b (HCR6); assay: Serum HCV RNA (real-time PCR) in chimeric mice with humanized liver infected with HCV genotype 1b, myriocin and/or PEG-IFN; assay type: in vivo, chimeric mice having humanized liver; details: after eight days, myriocin 1 mg/kg (reduced to 0.5 mg/kg on weight loss)
Method: The inhibitory activity of myriocin was examined using chimeric mice having humanized liver infected with HCR6 (genotype 1b). The chimeric mice used were purchased from PhoenixBio Co. (Hiroshima, Japan).
Specifically, according to Table 2, myriocin and/or PEG-IFN (Chugai, Tokyo, Japan) were administered intraperitoneally or subcutaneously into mice infected with HCV genotype 1b (HCR6; accession number AY045702) and blood was collected. Table 2: Administration schedule for chimeric mice infected with HCV genotype 1b
In Table 2, the symbols B, I, and M indicate that each step was conducted as needed and the administration of agents was started on day 0. PEG-IFN was injected at a dose of 30 µg/kg. The dose of myriocin injection was varied depending on the mouse weight. The administration was started at 1 mg/kg (M). When the weight was reduced by 10%, the dose was reduced to 0.5 mg/kg (M1/2). The administration was discontinued when the weight was reduced by 20%.
Next, total RNAs were purified using AGPC method from 1 µl of sera or hepatic tissues collected from the chimeric mice. HCV RNA was quantified by real-time PCR using a method known to those skilled in the art (Takeuchi, T. et al., Gastroenterology, 116, 636-642 (1999)).

[6] = tested on: FLR3-1 HCV subgenomic replicon cells (genotype 1b; Con-1); assay: Luciferase assay of HCV replication in HCV subgenomic replicon cells; assay type: cell-based; details: Hepatitis C virus; for IC50: 72 h, FLR3-1 cells, read-out: IC50 of myriocin
Method: First, myriocin (Sigma, St. Louis, MO, USA) was added at a final concentration of 0.2, 1.0, 3.9, 15.6, or 62.5 nM to a growth medium for FLR3-1 HCV subgenomic replicon cells (genotype 1b; Con-1; Sakamoto, H. et al., Nat Chem Biol, 1, 333-337 (2005)). After 72 hours of incubation, the present inventors carried out luciferase assay using the Bright-Glo luciferase assay kit (Promega, Madison, WI, USA).
FLR3-1 cells were incubated with 1 or 2.5 µM of a sphingolipid intermediate (dihydrosphingosine, sphingosine, or sphingosine-1-phosphate), and then serial dilutions of myriocin were added thereto. After 72 hours, IC50 in each combination was determined by luciferase assay.

[7] = tested on: NS3 protein; assay: Immunoblotting and immunofluorescent staining of NS3 protein in HCV replicon cells; assay type: cell-based

SMILES: CCCCCCC(=O)CCCCCC/C=C/C[C@@H](O)[C@H](O)[C@@](N)(CO)C(=O)O [myriocin, Myriocin]
- HCV 1a RNA and core protein in the liver ([1]; 1a-4 mice): also reduced
- serum level of HCV RNA ([1]; 1a-4 mice, non-treated about 1x10^8 copies/ml): 1 x 10^5 copies/ml
- core protein in human hepatocytes (immunofluorescent staining) ([1]; liver sections of 1a-4 mice): disappeared
- cell viability [2]: without affecting the cell viability
- production of both ceramide and sphingomyelin [3]: inhibited in a dose dependent manner
- production of phosphatidylethanolamine and phosphatidylserine [3]: not affected
- human albumin level [4]: without affecting h-Alb
- reduction of serum level of HCV RNA [5]: 10 to 100 times
- serum level of HCV RNA ([5]; before treatment 3 x 10^6 to 1 x 10^7 copies/ml): 6 x 10^5 to 1 x 10^4 copies/ml
- IC50 ([6]; Agent added: Dihydrosphingosine 1.0 µM): 0.0777 µM
- IC50 ([6]; Agent added: Dihydrosphingosine 2.5 µM): > 1 µM
- IC50 ([6]; Agent added: Sphingosine 1.0 µM): 0.0224 µM
- IC50 ([6]; Agent added: Sphingosine 2.5 µM): > 1 µM
- IC50 ([6]; Agent added: Sphingosine-1-phosphate 1.0 µM): 0.0147 µM
- IC50 ([6]; Agent added: Sphingosine-1-phosphate 2.5 µM): > 1 µM
- IC50 ([6]; No agent added, luciferase assay): ~0.0058 µM
- inhibition at 0.0625 µM ([6]; in the presence of 62.5 nM myriocin, 72 hours, read-out: maximum inhibitory rate (luciferase activity)): ~80%
- NS3 protein [7]: reduced
